Like-named read-outs stand apart in the source and are kept apart here. Marks after values point to notes of the source that are not given here. Peptide text beside a SMILES is read from it. * marks the point of attachment. Cbz = O=C(OCc1ccccc1)*; PhAc = O=C(Cc1ccccc1)*
How the values were obtained:
[1] = tested on: West Nile virus NS2B/NS3 protease; details: cited from earlier work
Dengue and WNV titres = tested on: Dengue and WNV titres; design: method as in earlier work; details: cell-based assays of virus replication; ref 15 (Behnam et al.); read-out: EC50, reduction of Dengue and WNV titres; cited from earlier work
WNV NS2B/NS3 protease = WNV NS2B/NS3 protease (West Nile virus, UniProt P06935); assay: In vitro NS2B/NS3 protease inhibition (fluorescent substrate Pyr-RTKR-AMC, progress curve method); format: biochemical; details: for percent of inhibition: inhibitor 100 µM, after 30 min incubation at 37 °C; for k2/Ki: Table 2, peptide phosphonates; for improvement in inhibitory potency after introduction of P2 Arg and P3 Lys: peptidyl derivative vs. simple Cbz-protected parent phosphonate
Description: For the initial screening, Cbz-protected aminophosphonates were assayed in 96 well microplates (Nunc™ F96 MicroWell™ White Polystyrene Plate) in the following protease buffer: 50 mM Tris, 1 mM Chaps, 20% glycerol, pH 8.5. WNV NS2B/NS3 protease (AnaSpec, Liege, Belgium; 20 nM) was pre-incubated with tested inhibitor (100 µM) in the protease buffer at 37 °C for 10 min prior an addition of the fluorescent substrate Pyr-RTKR-AMC (AnaSpec, Liege, Belgium; 20 µM). The progress of the reaction was monitored continuously (λex = 354 nm, λem = 442 nm) at 37 °C on a Spectra Max Gemini XPS spectrofluorometer (Molecular Devices, Sunnyvale, CA) for 30 min. […] In 96 well microplates narrowed concentration of inhibitors and constant substrate concentration (Pyr-RTKR-AMC, C = 20 µM, KM = 59 µM) were prepared. The enzyme solution was added and enzymatic reaction was monitored (Figure S1). Using a model for irreversible inhibition, in which the first order inactivation rate constant kobs is hyperbolic dependent from the inhibitor concentration Ki and k2/Ki values were calculated (equations (1–4) in supplementary material)[29]. Control progress curves in the absence of inhibitor were linear.
The inhibitory activity of the compounds was determined by the progress curve method. First the data from nonlinear progress curves with time dependent inhibitors were fit to eq.1 to obtain the first-order rate constant (kobs):
The second-order rate constants (k2/KI) and (KI)app values were calculated using hyperbolic regression according to equation 3: […]
KI values were calculated according to equation 3: […]

Bovine β-trypsin = molecular target: T1, Bovine β-trypsin (Bos taurus, UniProt P00760); assay: Control proteases inhibition assay, trypsin; format: biochemical; details: inhibitor concentration 25 μM, after 30 min incubation at 37 °C
T1 construct: purchased AppliChem, Łódź, Poland
T1 sequence (P00760 24-246): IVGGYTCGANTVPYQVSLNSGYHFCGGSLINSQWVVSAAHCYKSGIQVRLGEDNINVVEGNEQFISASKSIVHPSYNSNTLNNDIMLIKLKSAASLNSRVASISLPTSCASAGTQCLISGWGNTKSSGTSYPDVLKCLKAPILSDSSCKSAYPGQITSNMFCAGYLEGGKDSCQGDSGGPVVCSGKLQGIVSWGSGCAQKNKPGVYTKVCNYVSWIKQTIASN
Description: (§1) Bovine β-trypsin (AppliChem, Łódź, Poland), human cathepsin G (Biocentrum, Kraków, Poland) and Human Airway Trypsin-like Protease (HAT) (R&D Systems, Minneapolis, MN) were used as control proteases to screen the activity of NS2B/NS3 protease inhibitors (36–39) obtained in this study. Inhibitors were assayed in 96-well microplates in the 0.1 M HEPES, 0.5 M NaCl, 0.03%, pH 7.5 Triton X-100 (for bovine β-trypsin and cathepsin G). Bovine β-trypsin (15 nM), human cathepsin G (150 nM) or HAT protease (0.001 µg) was pre-incubated with tested inhibitor (25 µM) in the protease buffer at 37 °C for 10 min prior to the addition of the fluorescent substrate: Cbz-Arg-AFC (synthesised in-house according to the procedure described by Bissell[30]; 50 µM; λex = 400 nm, λem = 505 nm, for bovine β-trypsin); MeO-Suc-Ala-Ala-Pro-Val-AMC (Bachem, Bubendorf, Switzerland; 40 µM, λex = 340 nm, λem = 440 nm, for human cathepsin G) or Phe-Ser Arg-AMC (Bachem, Bubendorf, Switzerland; 40 µM, λex = 340 nm, λem = 440 nm, for HAT protease). The progress of the reactions was monitored continuously at 37 °C on a Spectra Max Gemini XPS spectrofluorometer for 20 min. Control curves in the absence of inhibitor were linear. The rate of the tested protease inhibition was calculated from the linear range of the plot.

human cathepsin G = molecular target: T2, human cathepsin G (Homo sapiens, UniProt P08311); assay: Control proteases inhibition assay, cathepsin G; format: biochemical; details: inhibitor concentration 25 μM, after 30 min incubation at 37 °C
T2 construct: purchased Biocentrum, Kraków, Poland
T2 sequence (P08311 21-255): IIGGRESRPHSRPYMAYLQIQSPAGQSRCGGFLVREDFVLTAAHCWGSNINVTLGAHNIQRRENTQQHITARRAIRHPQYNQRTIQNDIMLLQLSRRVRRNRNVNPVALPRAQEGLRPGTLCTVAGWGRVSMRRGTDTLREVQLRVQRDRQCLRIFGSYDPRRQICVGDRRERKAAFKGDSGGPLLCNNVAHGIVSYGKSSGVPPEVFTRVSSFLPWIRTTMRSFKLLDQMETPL
Description: as §1

[2] = molecular target: T3, Human Airway Trypsin-like Protease (HAT) (Homo sapiens, UniProt O60235); assay: Control proteases inhibition assay, HAT protease; format: biochemical; details: inhibitor concentration 25 μM, after 30 min incubation at 37 °C
T3 construct: purchased R&D Systems, Minneapolis, MN
T3 sequence (O60235 1-418): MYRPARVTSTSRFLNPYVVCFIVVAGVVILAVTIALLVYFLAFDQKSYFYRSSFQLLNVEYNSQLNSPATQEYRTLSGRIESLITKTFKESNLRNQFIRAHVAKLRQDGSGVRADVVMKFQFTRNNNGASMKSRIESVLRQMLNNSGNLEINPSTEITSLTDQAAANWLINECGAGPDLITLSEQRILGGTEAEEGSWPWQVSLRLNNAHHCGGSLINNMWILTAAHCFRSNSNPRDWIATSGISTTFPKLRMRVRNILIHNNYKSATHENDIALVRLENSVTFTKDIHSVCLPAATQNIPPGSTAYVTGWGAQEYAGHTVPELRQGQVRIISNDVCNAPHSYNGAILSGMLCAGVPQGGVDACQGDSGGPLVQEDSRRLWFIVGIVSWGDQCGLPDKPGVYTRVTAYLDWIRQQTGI
Description: as §1

[3] = Stability in assay buffer (HPLC analysis); format: physicochemical
Description: Stability in assay buffer. A stock solution of compound (38) (10 mM in acetonitrile) was added to the assay buffer (50 mM Tris, 1 mM Chaps, 20% glycerol, pH 8.5) to make a final concentration of 2 mg/mL and incubated at 37°C. The resulting mixture was subjected to HPLC analysis to determine compound stability using a Discovery® BIO Wide Pore C8 HPLC Column (250 mm × 4.6 mm, 10 μm) with a 1 mL/min flow rate, gradient 0−100% [0.05% TFA in acetonitrile] in [0.05% TFA in water] over a period of 15 min.

[4] = tripeptide aldehydes, ref 11 (Stoermer et al.)

Chain of WNV NS2B/NS3 protease (P06935 1502-1680): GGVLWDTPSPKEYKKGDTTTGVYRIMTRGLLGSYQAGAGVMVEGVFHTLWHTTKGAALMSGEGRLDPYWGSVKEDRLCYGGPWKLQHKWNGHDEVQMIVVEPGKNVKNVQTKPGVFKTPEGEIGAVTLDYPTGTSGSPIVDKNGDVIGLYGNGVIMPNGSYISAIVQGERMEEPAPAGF
Chain of WNV NS2B/NS3 protease (P06935 1419-1466): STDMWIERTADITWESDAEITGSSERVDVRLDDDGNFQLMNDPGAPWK

## N=C(N)NCCC[C@@H](C=O)NC(=O)[C@H](CCCCN)NC(=O)[C@H](CCCCN)NC(=O)Cc1ccc(-c2ccccc2)cc1 [Compound 1]
[1]; [4]
  Ki: 6 nM

## N=C(N)NCCC[C@@H](C=O)NC(=O)[C@H](CCCCN)NC(=O)[C@H](CCCCN)NC(=O)Cc1ccccc1 [Compound 2] (PhAc-Lys-Lys-Arg-aldehyde)
[1]; [4]
  Ki: 9 nM

## N=C(N)NC1CCC(CNC(=O)[C@H](CCCCN)NC(=O)[C@H](CCCCN)NC(=O)Cc2ccc(Cl)c(Cl)c2)CC1 (some centres unmarked) [Compound 3]
[1]; ref 13 (Hammamy et al.)
  Ki: 130 nM

## NCCCC[C@H](NC(=O)c1ccc(/C=C2\SC(=O)N(CC3CCCCC3)C2=O)cc1)C(=O)N[C@@H](CCCCN)C(=O)N[C@H](C(N)=O)c1ccccc1 [Compound 4]
[1]; ref 14 (Bastos et al.)
  Ki: 750 nM

## N=C(N)NCCC[C@H](Nc1nccs1)C(=O)N[C@@H](CCCCN)C(=O)N[C@H](C(N)=O)c1ccc(OCc2ccc(C(F)(F)F)cc2)cc1 [Compound 5]
[1]; ref 15 (Behnam et al.)
  Ki: 39 nM
Dengue and WNV titres
  EC50: 15500 nM

## N=C(N)SCCCC(NC(=O)OCc1ccccc1)P(=O)(Oc1ccccc1)Oc1ccccc1 (centres unmarked) [Compound 8]
WNV NS2B/NS3 protease; substrate Pyr-RTKR-AMC 20 µM
  percent of inhibition: 22%

## NC(=O)CCC(NC(=O)OCc1ccccc1)P(=O)(Oc1ccccc1)Oc1ccccc1 (centres unmarked) [Compound 11, Cbz-Gln^P(OPh)2]
WNV NS2B/NS3 protease; substrate Pyr-RTKR-AMC 20 µM
  percent of inhibition: 15%

## N#Cc1ccc2cc(C(NC(=O)OCc3ccccc3)P(=O)(Oc3ccccc3)Oc3ccccc3)ccc2c1 (centres unmarked) [Compound 22]
WNV NS2B/NS3 protease; substrate Pyr-RTKR-AMC 20 µM
  percent of inhibition: 2%

## N=C(N)c1ccc2cc(C(NC(=O)OCc3ccccc3)P(=O)(Oc3ccccc3)Oc3ccccc3)ccc2c1 (centres unmarked) [Compound 23]
WNV NS2B/NS3 protease; read-out: percent of inhibition
  inhibition at 100 µM: 12%

## O=C(NC(c1ccc(-n2cccn2)cc1)P(=O)(Oc1ccccc1)Oc1ccccc1)OCc1ccccc1 (centres unmarked) [Compound 24, Benzyl ((4-(1H-pyrazol-1-yl)phenyl)(diphenoxyphosphoryl)methyl)carbamate]
WNV NS2B/NS3 protease; substrate Pyr-RTKR-AMC 20 µM
  percent of inhibition: 5%

## O=C(NC(c1ccc(-n2cnc3ccccc32)cc1)P(=O)(Oc1ccccc1)Oc1ccccc1)OCc1ccccc1 (centres unmarked) [Compound 25]
WNV NS2B/NS3 protease; substrate Pyr-RTKR-AMC 20 µM
  percent of inhibition: 4%

## CN1CCN(c2ccc(C(NC(=O)OCc3ccccc3)P(=O)(Oc3ccccc3)Oc3ccccc3)cc2)CC1 (centres unmarked) [Compound 26]
WNV NS2B/NS3 protease; substrate Pyr-RTKR-AMC 20 µM
  percent of inhibition: 3%

## O=C(NC(c1ccc(N2CCOCC2)cc1)P(=O)(Oc1ccccc1)Oc1ccccc1)OCc1ccccc1 (centres unmarked) [Compound 27]
WNV NS2B/NS3 protease; substrate Pyr-RTKR-AMC 20 µM
  percent of inhibition: 1%

## N=C(N)NCCC[C@H](NC(=O)[C@H](CCCCN)NC(=O)OCc1ccccc1)C(=O)NC(CCCCN)P(=O)(Oc1ccccc1)Oc1ccccc1 (stereo partly drawn) [Compound 36, Cbz-Lys-Arg-Lys^P(OPh)2]
WNV NS2B/NS3 protease
  Ki: 8000 ± 900 nM
  improvement in inhibitory potency after introduction of P2 Arg and P3 Lys: 69 fold
WNV NS2B/NS3 protease; substrate Pyr-RTKR-AMC 20 µM
  k2/Ki: 5 520 M^−1s^−1
Bovine β-trypsin
  percent of inhibition, Trypsin: 8%^a
Human cathepsin G
  percent of inhibition, CatG: 2%
[2]
  percent of inhibition, HAT: 2%

## N=C(N)NCCCC(NC(=O)[C@H](CCCNC(=N)N)NC(=O)[C@H](CCCCN)NC(=O)OCc1ccccc1)P(=O)(Oc1ccccc1)Oc1ccccc1 (stereo partly drawn) [Compound 37, Cbz-Lys-Arg-Arg^P(OPh)2]
WNV NS2B/NS3 protease
  Ki: 3000 ± 300 nM
  improvement in inhibitory potency after introduction of P2 Arg and P3 Lys: 69 fold
WNV NS2B/NS3 protease; substrate Pyr-RTKR-AMC 20 µM
  k2/Ki: 10 725 M^−1s^−1
Bovine β-trypsin
  percent of inhibition, Trypsin: 7%
Human cathepsin G
  percent of inhibition, CatG: 3%
[2]
  percent of inhibition, HAT: 2%

## N=C(N)NCCC[C@@H](NC(=O)[C@@H](CCCCN)NC(=O)OCc1ccccc1)C(=O)NC(Cc1ccc(NC(=N)N)cc1)P(=O)(Oc1ccccc1)Oc1ccccc1 (stereo partly drawn) [Compound 38, Cbz-Lys-Arg-(4-GuPhe)^P(OPh)2]
WNV NS2B/NS3 protease
  Ki: 400 ± 30 nM
WNV NS2B/NS3 protease; read-out: k2/Ki
  kinact/KI: 28300 M⁻¹ s⁻¹
Bovine β-trypsin
  percent of inhibition, Trypsin: no significant inhibition
Bovine β-trypsin; read-out: percent of inhibition, Trypsin
  inhibition at 25 µM: 4%
Human cathepsin G
  percent of inhibition, CatG: no significant inhibition
Human cathepsin G; read-out: percent of inhibition, CatG
  inhibition at 25 µM: 7%
[2]
  percent of inhibition, HAT: no significant inhibition
[2]; read-out: percent of inhibition, HAT
  inhibition at 25 µM: 5%
[3]; during enzyme inhibition assay time, assay buffer pH 8.5
  inhibitor degradation: ~ 1%
[3]; over 6 hours, assay buffer pH 8.5, 37 °C
  degradation of compound: ~ 13%
[3]; time 0.0 h, assay buffer pH 8.5, 37 °C
  % of initial inhibitor concentration: 100%
[3]; time 0.5 h, assay buffer pH 8.5, 37 °C
  % of initial inhibitor concentration: 98,93%
[3]; time 1.0 h, assay buffer pH 8.5, 37 °C
  % of initial inhibitor concentration: 98,12%
[3]; time 1.5 h, assay buffer pH 8.5, 37 °C
  % of initial inhibitor concentration: 96,27%
[3]; time 2.0 h, assay buffer pH 8.5, 37 °C
  % of initial inhibitor concentration: 95,19%
[3]; time 2.5 h, assay buffer pH 8.5, 37 °C
  % of initial inhibitor concentration: 95,04%
[3]; time 3.0 h, assay buffer pH 8.5, 37 °C
  % of initial inhibitor concentration: 93,35%
[3]; time 3.5 h, assay buffer pH 8.5, 37 °C
  % of initial inhibitor concentration: 91,90%
[3]; time 4.0 h, assay buffer pH 8.5, 37 °C
  % of initial inhibitor concentration: 91,11%
[3]; time 4.5 h, assay buffer pH 8.5, 37 °C
  % of initial inhibitor concentration: 88,43%
[3]; time 5.0 h, assay buffer pH 8.5, 37 °C
  % of initial inhibitor concentration: 86,99%
[3]; time 5.5 h, assay buffer pH 8.5, 37 °C
  % of initial inhibitor concentration: 86,84%
[3]; time 6.0 h, assay buffer pH 8.5, 37 °C
  % of initial inhibitor concentration: 86,73%

## N=C(N)NCCCC(C=O)NC(=O)C(CCCNC(=N)N)NC(=O)C(CCCCN)NC(=O)OCc1ccccc1 (stereo not drawn) [Compound 40, Cbz-Lys-Arg-Arg-H, reference compound] (Cbz-Lys-Arg-Arg-aldehyde; configuration not given here)
WNV NS2B/NS3 protease; Table 2, peptide phosphonates and reference aldehyde, substrate Pyr-RTKR-AMC 20 µM, read-out: Ki
  Ki: 120 ± 20 nM

From article PMC6211275, “Phosphonate inhibitors of West Nile virus NS2B/NS3 protease” (Journal of Enzyme Inhibition and Medicinal Chemistry, 2018)
